# According to article PMC12018048, “Intranasal kisspeptin administration rapidly stimulates gonadotropin release in humans” (eBioMedicine, 2025):
# Several values for one entry are separate records, joined by “and”; a condition that tells them apart may be missing. Identical values can stand only once.
# Assays:
# [1] = system: serum LH, FSH, oestradiol and progesterone; assay: Intranasal kisspeptin-54, reproductive hormone profiles in patients with hypothalamic amenorrhoea; format: in vivo, human
# Method: (§1) This was a randomised, double-blinded, crossover, placebo-controlled clinical study (Fig. 1, Fig. 2, Fig. 3a). Participants were admitted to the Clinical Research Unit (Imperial College Healthcare NHS Trust) and completed five (in healthy men) or two (in healthy women and patients with HA) study visits. […] Study visits in healthy women were conducted in the follicular phase of the menstrual cycle (i.e., days 2–10 inclusive) to control for changes in reproductive hormones over the course of the cycle and were conducted across two different menstrual cycles to allow washout.
# (§2) All studies commenced at 08:00 to control for circadian hormonal changes. Participants were instructed to abstain from alcohol, caffeine, and sexual activities from 22:00 preceding each study visit. On arrival, an intravenous cannula was inserted into one antecubital fossa, and blood was sampled at timepoints −30, −15, and 0 min, before intranasal administration of kisspeptin-54 or 0.9% saline (placebo). Following participant education (described below), healthy men self-administered the following 5 interventions under supervision in random order via the intranasal route: 3.2, 6.4, 12.8, and 25.6 nmol/kg of kisspeptin-54, or placebo. Healthy women and patients with HA attended for the same protocol comparing 12.8 nmol/kg of kisspeptin-54 and placebo in random order. After administration of kisspeptin-54 or placebo at timepoint 0 min, serum levels of LH, FSH, and testosterone (in men), or oestradiol and progesterone (in women) were measured every 15 min for 4 h. Heart rate, blood pressure, and the presence of adverse symptoms were recorded every 15 min.
# (§3) Kisspeptin-54 or placebo was self-administered using nasal spray devices that delivered a single volume of 100 μL per actuation (SP270+ pump, 3959 actuator, 5 mL SGD U-Save glass bottles provided by Nemera, La Verpillière, France). The kisspeptin-54 nasal spray solution formulations were prepared by reconstituting kisspeptin-54 powder stored in sterile vials on the morning of each study visit to produce a solution containing the target dose according to body weight in 400 μL.
# (§4) Participants were familiarised with the procedure of intranasal application and were provided with written administration instructions ahead of each study visit, as described in.[38] In addition, participants received a 5-min training session using a dummy nasal spray device before starting the study to ensure good technique, which all participants easily understood. Under instruction and supervision from the clinical team, participants primed the nasal sprays then self-administered a total of four sprays of kisspeptin-54 or placebo per visit (i.e., 4 × 100 μL), alternating between nostrils and leaving 60 s between sprays, to allow satisfactory dissipation and avoid solution running out of the nostrils. Nasal sprays containing kisspeptin or placebo were identical in appearance, volume, and administration technique.
# (§5) Blood samples were collected to measure serum reproductive hormone levels at the timepoints depicted in Fig. 1, Fig. 2, Fig. 3a. Serum samples were stored at −20 °C until analysis. Serum LH, FSH, testosterone (in men), and oestradiol and progesterone (in women) were measured using automated chemiluminescent immunoassays (Abbott Diagnostics, Maidenhead, UK: LH catalogue # 2P40-25, FSH catalogue # 7K75-25, testosterone catalogue # 07K7320, oestradiol catalogue # 7K72-25, progesterone catalogue # 7K77-25). Reference ranges: LH in international units per litre (IU/L), 2–12 (men), 2–10 (follicular), 20–60 (mid-cycle), 4–14 (luteal); FSH in IU/L, 1.7–8 (men), 1.5–8.0 (follicular and luteal), 10–50 (mid-cycle); in men: testosterone in nanomoles per litre (nmol/L), 10–30; and in women: oestradiol in picomoles per litre (pmol/L), <300 (early follicular), 400–1500 (mid-cycle), 200–1000 (luteal) and progesterone in nmol/L, <5.0 (follicular), 3.5–67 (luteal). […]
# [2] = Stability of kisspeptin-54 solutions for nasal delivery; format: physicochemical; conditions: 2 M HCL or phosphate buffer at 60 °C for 72 h, HPLC-UV
# [3] = system: serum LH, FSH and testosterone; assay: Intranasal kisspeptin-54, reproductive hormone profiles in healthy men; format: in vivo, human; conditions: N = 12; for AUC of the change in serum LH / AUC of the change in serum testosterone / AUC of the change in serum FSH: 4 h sampling; for AUC of the change in serum LH / AUC of the change in serum testosterone / Max increase from baseline in serum testosterone / Maximum increase from baseline in serum FSH / Maximum increase from baseline in serum LH / AUC of the change in serum FSH: mean ± SEM; for Serum FSH over the sampling period, mean difference vs placebo / Serum LH over the sampling period, mean difference vs placebo: 4 h time profile
# Method: as §1, §2, §3, §4, §5
# [4] = intranasal 12.8 nmol/kg, N = 10 (HA) and N = 12 (healthy women)
# [5] = intranasal 12.8 nmol/kg, unpaired t-test, N = 10 (HA) and N = 12 (healthy women)
# [6] = patients with HA, intranasal 12.8 nmol/kg vs placebo, paired t-test, N = 10
# [7] = patients with HA, intranasal 12.8 nmol/kg, two-way ANOVA, 4 h time profile, N = 10
# [8] = patients with hypothalamic amenorrhoea, intranasal 12.8 nmol/kg, 4 h sampling, mean ± SEM, N = 10
# [9] = patients with hypothalamic amenorrhoea, intranasal 12.8 nmol/kg, mean ± SEM, N = 10
# [10] = intranasal 3.2 nmol/kg vs placebo
# [11] = intranasal 6.4 nmol/kg vs placebo
# [12] = intranasal 6.4 nmol/kg, two-way ANOVA
# [13] = intranasal 12.8 nmol/kg vs placebo
# [14] = intranasal 12.8 nmol/kg, two-way ANOVA
# [15] = intranasal 25.6 nmol/kg vs placebo
substance,measurement,setting,value
Kisspeptin-54,"Maximal FSH increase, patients with HA relative to healthy women",[1]; [4],over 10 fold
same,"Maximal LH increase, patients with HA relative to healthy women",[1]; [4],over 3 fold
same,"Maximal FSH increase, mean difference patients with HA vs healthy women",[1]; [5],2.77 IU/L
same,"Maximal LH increase, mean difference patients with HA vs healthy women",[1]; [5],2.95 IU/L
same,"FSH AUC, mean difference vs placebo",[1]; [6],580.0 h·IU/L
same,"FSH maximum increase, mean difference vs placebo",[1]; [6],3.1 IU/L
same,"LH AUC, mean difference vs placebo",[1]; [6],756.9 h·IU/L
same,"LH maximum increase, mean difference vs placebo",[1]; [6],4.3 IU/L
same,Time of maximal stimulation of serum LH post-administration,"[1]; patients with HA, intranasal 12.8 nmol/kg, N = 10",30 to 45 min
same,Effect on circulating oestradiol and progesterone levels,"[1]; patients with HA, intranasal 12.8 nmol/kg, acute 4-h time-course, N = 10",no significant effects
same,"Serum FSH over time, mean difference vs placebo",[1]; [7],2.35 IU/L
same,"Serum LH over time, mean difference vs placebo",[1]; [7],3.0 IU/L
same,AUC of the change in serum FSH,[1]; [8],474.9 ± 237.3 h·IU/L
same,AUC of the change in serum LH,[1]; [8],600.6 ± 146.7 h·IU/L
same,Maximum increase from baseline in serum FSH,[1]; [9],3.1 ± 0.3 IU/L
same,Maximum increase from baseline in serum LH,[1]; [9],4.4 ± 0.2 IU/L
same,Forced degradation (HPLC assay specificity),[2],loss or reduction of the kisspeptin peak
same,"FSH AUC, mean difference vs placebo",[3]; [10],47.2 h·IU/L
same,"FSH maximum increase, mean difference vs placebo",[3]; [10],0.2 IU/L
same,"LH AUC, mean difference vs placebo",[3]; [10],197.6 h·IU/L
same,"LH maximum increase, mean difference vs placebo",[3]; [10],1.1 IU/L
same,"Testosterone AUC, mean difference vs placebo",[3]; [10],457.4 nmol·h/L
same,"Testosterone max increase, mean difference vs placebo",[3]; [10],1.5 nmol/L
same,AUC of the change in serum LH,[3]; intranasal 3.2 nmol/kg,172.2 ± 64.2 h·IU/L
same,AUC of the change in serum testosterone,[3]; intranasal 3.2 nmol/kg,273.6 ± 158.7 nmol·h/L
same,Max increase from baseline in serum testosterone,[3]; intranasal 3.2 nmol/kg,4.0 ± 1.0 nmol/L
same,Maximum increase from baseline in serum FSH,[3]; intranasal 3.2 nmol/kg,0.3 ± 0.1 IU/L
same,Maximum increase from baseline in serum LH,[3]; intranasal 3.2 nmol/kg,2.5 ± 0.3 IU/L
same,"FSH AUC, mean difference vs placebo",[3]; [11],97.6 h·IU/L
same,"FSH maximum increase, mean difference vs placebo",[3]; [11],0.4 IU/L
same,"LH AUC, mean difference vs placebo",[3]; [11],325.5 h·IU/L
same,"LH maximum increase, mean difference vs placebo",[3]; [11],1.7 IU/L
same,"Testosterone AUC, mean difference vs placebo",[3]; [11],329.7 nmol·h/L
same,"Testosterone max increase, mean difference vs placebo",[3]; [11],0.9 nmol/L
same,AUC of the change in serum FSH,[3]; intranasal 6.4 nmol/kg,37.3 ± 16.2 h·IU/L
same,AUC of the change in serum LH,[3]; intranasal 6.4 nmol/kg,300.2 ± 79.2 h·IU/L
same,AUC of the change in serum testosterone,[3]; intranasal 6.4 nmol/kg,145.9 ± 158.5 nmol·h/L
same,Max increase from baseline in serum testosterone,[3]; intranasal 6.4 nmol/kg,3.4 ± 0.8 nmol/L
same,Maximum increase from baseline in serum FSH,[3]; intranasal 6.4 nmol/kg,0.4 ± 0.1 IU/L
same,"Serum FSH over the sampling period, mean difference vs placebo",[3]; [12],0.4 IU/L
same,"Serum LH over the sampling period, mean difference vs placebo",[3]; [12],1.3 IU/L
same,"FSH AUC, mean difference vs placebo",[3]; [13],156.6 h·IU/L
same,"FSH maximum increase, mean difference vs placebo",[3]; [13],0.7 IU/L
same,"LH AUC, mean difference vs placebo",[3]; [13],621.1 h·IU/L
same,"LH maximum increase, mean difference vs placebo",[3]; [13],3.1 IU/L
same,"Testosterone AUC, mean difference vs placebo",[3]; [13],654.3 nmol·h/L
same,"Testosterone max increase, mean difference vs placebo",[3]; [13],2.4 nmol/L
same,AUC of the change in serum FSH,[3]; intranasal 12.8 nmol/kg,96.3 ± 23.2 h·IU/L
same,AUC of the change in serum LH,[3]; intranasal 12.8 nmol/kg,595.7 ± 98.3 h·IU/L
same,AUC of the change in serum testosterone,[3]; intranasal 12.8 nmol/kg,470.4 ± 144.0 nmol·h/L
same,Time of maximal increase in serum testosterone,[3]; intranasal 12.8 nmol/kg,150 min
same,Max increase from baseline in serum testosterone,[3]; intranasal 12.8 nmol/kg,4.9 ± 0.7 nmol/L
same,Maximum increase from baseline in serum FSH,[3]; intranasal 12.8 nmol/kg,0.7 ± 0.2 IU/L
same,Maximum increase from baseline in serum LH,[3]; intranasal 12.8 nmol/kg,4.45 IU/L and 4.4 ± 0.6 IU/L
same,"Serum FSH over the sampling period, mean difference vs placebo",[3]; [14],0.6 IU/L
same,"Serum LH over the sampling period, mean difference vs placebo",[3]; [14],2.5 IU/L
same,"Serum testosterone, mean difference vs placebo at peak levels from 120 min",[3]; [14],1.91 nmol/L
same,"FSH AUC, mean difference vs placebo",[3]; [15],147.6 h·IU/L
same,"FSH maximum increase, mean difference vs placebo",[3]; [15],0.7 IU/L
same,"LH AUC, mean difference vs placebo",[3]; [15],574.4 h·IU/L
same,"LH maximum increase, mean difference vs placebo",[3]; [15],2.9 IU/L
same,"Testosterone AUC, mean difference vs placebo",[3]; [15],630.3 nmol·h/L
same,"Testosterone max increase, mean difference vs placebo",[3]; [15],3.1 nmol/L
same,AUC of the change in serum FSH,[3]; intranasal 25.6 nmol/kg,87.3 ± 66.2 h·IU/L
same,AUC of the change in serum LH,[3]; intranasal 25.6 nmol/kg,549.0 ± 108.6 h·IU/L
same,AUC of the change in serum testosterone,[3]; intranasal 25.6 nmol/kg,446.5 ± 287.4 nmol·h/L
same,Max increase from baseline in serum testosterone,[3]; intranasal 25.6 nmol/kg,5.6 ± 1.6 nmol/L
same,Maximum increase from baseline in serum FSH,[3]; intranasal 25.6 nmol/kg,0.8 ± 0.3 IU/L
same,Maximum increase from baseline in serum LH,[3]; intranasal 25.6 nmol/kg,4.3 ± 0.6 IU/L
same,"Serum LH over the sampling period, mean difference vs placebo","[3]; intranasal 25.6 nmol/kg, two-way ANOVA",2.3 IU/L
same,Time of peak stimulation of serum LH after administration,[3]; intranasal 3.2-25.6 nmol/kg,30 to 45 min
